Key:
[1] = molecular target: T1, horseradish peroxidase (HRP) (Armoracia rusticana, UniProt P00433); experiment: Peroxide-induced inhibition; type: biochemical; settings: [LH-] = 750 μM; [HRP] = 2 μg/mL; pH 9
T1 sequence (P00433 31-338 limits assumed): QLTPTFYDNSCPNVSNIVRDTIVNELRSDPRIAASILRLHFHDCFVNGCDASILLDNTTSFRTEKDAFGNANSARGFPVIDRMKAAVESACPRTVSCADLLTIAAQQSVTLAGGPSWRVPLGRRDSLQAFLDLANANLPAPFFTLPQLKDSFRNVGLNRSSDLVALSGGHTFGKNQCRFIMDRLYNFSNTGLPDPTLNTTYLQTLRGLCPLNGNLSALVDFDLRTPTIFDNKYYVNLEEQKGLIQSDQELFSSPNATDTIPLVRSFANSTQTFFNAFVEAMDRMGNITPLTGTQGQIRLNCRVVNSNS

[2] = molecular target: Cyt c (Equus caballus, UniProt P00004); type: biochemical, equine; settings: for concentration at which an effect on the Cyt c-catalysed reaction starts: [Cyt c] = 15 μg/mL
Chain of Cyt c (P00004 whole entry): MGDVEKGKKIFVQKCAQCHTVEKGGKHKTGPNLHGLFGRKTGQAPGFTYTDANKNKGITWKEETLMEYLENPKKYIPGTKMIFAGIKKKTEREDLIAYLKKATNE

[3] = molecular target: T2, HRP (Armoracia rusticana, UniProt P00433); experiment: Enhancement of the HRP-catalysed luminol reaction by aromatic hydrogen donors; type: biochemical, horseradish; settings: [H2O2] = 1.1 mM; [LH-] = 750 μM; pH 9
T2 sequence (P00433 31-338 limits assumed): T1 sequence (P00433 31-338 limits assumed)

[4] = molecular target: T2, HRP; settings: [H2O2] of 17.6 mM; cited from earlier work
[5] = [LH-] = 750 μM, [H2O2] = 1.1 mM, pH 9

SMILES | protection of HRP against high [H2O2] (shift of peroxide inhibition) [1] | IC50 [2] [µM] | concentration at which an effect on the Cyt c-catalysed reaction starts [2, 5] | concentration for maximal enhancement of the HRP-catalysed reaction [3] | concentration for maximal enhancement [4] [mM] | kind of quenching of Cyt c-catalysed luminescence (kinetics) ([2]; [Cyt c] = 20 μg/mL, [LH-] = 750 μM, [H2O2] = 1.1 mM, pH 9)
N[C@@H](CCC(=O)N[C@@H](CS)C(=O)NCC(=O)O)C(=O)O [GSH, glutathione] | does not exert a protective effect on HRP | 41 | about 10 μM |  |  | 
Oc1ccc(I)cc1 [IP, iodophenol] |  |  |  | around 200 μM | 4 | 
NC(=O)C1=CN([C@@H]2O[C@H](COP(=O)([O-])OP(=O)([O-])OC[C@H]3O[C@@H](n4cnc5c(N)ncnc54)[C@H](O)[C@@H]3O)[C@@H](O)[C@H]2O)C=CC1.[Na+].[Na+] [NADH, Nicotinamide–adenine–dinucleotide disodium] |  |  | 80 µM |  |  | permanent luminescence quenching

Source: PMC6645248 (ACS Omega, 2018)
